Values of other authors, collected in patent US20180071205A1, “Stable Vitamin C System” (priority 2014, published 2018).

Legend:
[1] = aqueous solutions; accelerated by alkalines, iron and copper; sodium salt at pH >6
[2] = normal water-based preparation

stability to oxidation by air [1]: rapidly oxidized by air | pH [2]: around 2
Compound: O=C1O[C@H]([C@@H](O)CO)C(O)=C1O [L-ascorbic acid]
